Ends that are not written are not given here.
Assays:
[1] = test system: OVA-sensitized rabbits; test: Allergic conjunctivitis response to ocular OVA challenge in OVA-sensitized rabbits; assay type: in vivo, rabbit; settings: 15 μl of 1 μM topically 20 minutes prior to OVA, examined at 60 minutes
Procedure: Similar to previous studies investigating either allergic asthma or allergic conjunctivitis in animal models, in vivo studies were conducted wherein adult NZW rabbits were initially systemically immunized with weekly intra-peritoneal (i.p.) injections of 2.5 mg ovalbumin (OVA) and 10 mg of alum adjuvant for 4-5 weeks. Following sensitization, as previously described in other animal models of allergic conjunctivitis (Groneberg D. A. et al. Allergy 58: 1101-1113, 2003), the OVA allergen was topically introduced into the conjunctival sac of the eyes of the rabbit to examine its ocular allergic inflammatory response. […] Accordingly, for each animal, 15 μl of a sterile 1 μM concentration of the MPS:anti-Gβγ peptide (prepared in PBS) was topically applied into the conjunctival sac of one eye 20 minutes prior to subsequent instillation of OVA (500 μg in 15 μl PBS), and the carrier MPS peptide alone (i.e., control “sham” pretreatment) was applied to the other eye 20 minutes prior to subsequent instillation of OVA. The eyes were then clinically examined for an acute ocular inflammatory response to OVA challenge and photographs were taken of each eye at 60 minutes following OVA challenge. […]

[2] = test system: rabbit ASM tissues; test: Constrictor responsiveness to acetylcholine (ACh) in isolated rabbit ASM tissues, isometric tension in organ bath; settings: for effect of pretreatment on PGE2-induced increase in constrictor responsiveness to ACh: PGE2 100 nM x 24 hr; for effect of pretreatment on salmeterol-induced increase in constrictor responsiveness to ACh: salmeterol 10 μM x 24 hr
From the text: Detection of PDE4D5 mRNA transcripts: Total RNA was extracted from the cultured ASM cells using the TRIzol method (Invitrogen), and cDNAs were isolated by RT-PCR using the SuperScript First Strand Synthesis System kit from Invitrogen, with the following oligonucleotide primer sets (Integrated DNA Technologies): for PDE4D5, 5′-[…]-3′ (forward; SEQ ID NO: 2) and 5′-[…]-3′ (reverse; SEQ ID NO: 3); and for β-actin, 5′-[…]-3′ (forward; SEQ ID NO: 4) and 5′-[…]-3′ (reverse; SEQ ID NO: 5). The reaction volume was 20 μl and cycling conditions used were 35 cycles of 30 sec denaturation at 95° C., followed by 30 sec annealing at 60° C. and elongation at 72° C. for 30 sec. Ex-Tag (Takara Biotechnology) was used as DNA polymerase. […] Following protein extraction and the addition of gel-loading buffer, the extracts were loaded on a 10% SDS-PAGE gel for immunoblotting after transfer to a PVDF membrane. The membranes were then incubated overnight with monoclonal mouse anti-human primary antibodies directed against phospho-CREB and -ATF1, phospho-ERK1/2, or α-actin, and levels were detected by ECL after a 1-hr incubation with a 1:2,000 dilution of HRP-conjugated rabbit anti-mouse secondary antibody, followed by exposure to autoradiography film. The protein band intensities were quantified by densitometry. siRNA-mediated knockdown of PKA: ASM cells were seeded into 6-well plates and, at ˜40% confluency, the medium was replaced with the reduced serum-containing medium, Opti-MEM (Invitrogen). The cells were then transfected twice during a 24-hr interval with two pools of three siRNA duplexes, each pool targeted against the human PKAα or PKAγ catalytic subunits (Santa Cruz Biotechnology; sc-36240 and sc-36236, respectively), or with a non-targeted control (scrambled) siRNA duplex, using Oligofectamine (Invitrogen) as the transfection agent. The pools of siRNAs were applied to each well at a final concentration of 100 nM for each siRNA preparation. […] Transfection of ASM cells with adeno-βARK-ct: Adenovirus (adeno)-βARK-ct, an adenovirus vector encoding the βARK1 carboxyl-terminal domain which blocks Gβγ signaling (25,26), and adeno-β-gal, an adenovirus vector expressing lacZ as a negative control, were constructed using the AdenoX adenovirus construction kit (BD-Clontech). Recombinant plaques were isolated and propagated in HEK293 cells (Invitrogen), with viral purification using the cesium chloride gradient method, and viral titer detected by plaque assay. The ASM cells were transfected with either of the adenoviral vectors at a multiplicity of infection (MOI) of 100, and experiments were conducted at 24 hr following adenoviral tranfections. Pharmacodynamic studies of constrictor and relaxation responsiveness in rabbit ASM tissues: Following initial sedation and subsequent general anesthesia with intramuscular injections of xylazine (10 mg/kg) and ketamine (50 mg/kg), respectively, rabbits were sacrificed with an intravenously administered overdose of sodium pentobarbital (100 mg/kg). As described previously (16), the tracheae were excised via open thoracotomy, the loose connective tissue and epithelium were scraped and removed, and the tracheae were divided into 8 ring segments, each of 6-8 mm in length. […] After these incubations, the tissues were placed in organ baths containing modified Krebs-Ringer solution aerated with 5% CO2 in oxygen (pH of 7.35-7.40), and attached to force transducers to continuously monitor isometric tension. […] The constrictor and relaxation dose-response curves were analyzed with respect to each tissue's maximal isometric contractile force (Tmax) to ACh and maximal relaxation response (Rmax) to isoproterenol from the initial level of active cholinergic contraction. Statistical analyses: Results are expressed as mean±SE values. Comparisons between groups were made using the Student's t-test (two-tailed) or ANOVA with Tukey's post-test analysis, where appropriate.

[3] = listed as MPS-conjugated anti-Gβγ peptide

Substance: MPS-Phosducin-like protein C terminus (AAVALLPAVLLALLAVTDQLGEDFFAVDLEAFLQEFGLLPEKE; also: MPS attached) [anti-Gβγ peptide]
- clinical signs of allergic conjunctivitis after ocular OVA challenge [1]: virtually no clinical signs of conjunctival inflammation
- clinical signs of allergic conjunctivitis after ocular OVA challenge [1, 3]: signs of allergic conjunctivitis are absent
- effect of pretreatment on PGE2-induced increase in constrictor responsiveness to ACh ([2]; listed as Gβγ inhibitory peptide): prevents
- effect of pretreatment on PGE2-induced increase in constrictor responsiveness to ACh ([2]; listed as anti-Gβγ cell-permeable inhibitory peptide): prevented
- effect of pretreatment on salmeterol-induced increase in constrictor responsiveness to ACh [2]: prevented
- effect of pretreatment on salmeterol-induced increase in constrictor responsiveness to ACh [2, 3]: ablated
- effect of the agent alone on constrictor responses to ACh ([2]; vehicle-exposed control tissues): no significant effect
